Experiments:
[1] = tested on: TNFα; conditions: standard in vitro pharmacological testing procedures (WO 97/49406); cited from earlier work
[2] = tested on: asthma patients; test: Phase II clinical study CEP-1347-201: peak expiratory flow rate (PEFR; ANCOVA at week 8 and longitudinal model of daily PEFR); format: in vivo, human; conditions: p=0.15; dose-response shape very similar to morning PEFR
[3] = tested on: subjects with Parkinson disease; test: Rhinitis episodes in subjects with Parkinson disease on CEP-1347; format: in vivo, human
Text: In a study examining for association of the MAP3K9 gene and Allergic Rhinitis, deCODE found an association of certain MAP3K9 haplotypes (Table 7A) with Allergic Rhinits, with RR of approximately 1.4 for each allele carried (p<0.05). The risk was highest in a subgroup of subjects with Allergic Rhinitis alone (RR of 1.6 and p=0.005). Additional support that the MAP3K9 gene may play a role in Allergic Rhinits comes from a study conducted on subjects with Parkinson disease. […] Indeed, none of the subjects in the 50 mg dose group (n=198) developed rhinitis whereas 6 subjects in the placebo group (n=191) developed rhinitis (p=0.01).

[4] = tested on: asthma patients; test: Phase II clinical study CEP-1347-201: peak expiratory flow rate (PEFR; ANCOVA at week 8 and longitudinal model of daily PEFR); format: in vivo, human; conditions: for PEFR Change from Baseline at Week 8, LS Mean: ANCOVA; for Mean model predicted PEFR adjusted for baseline percent predicted PEFR, mean: morning PEFR
Text: Two analyses of PEFR were pre-specified in the SAP, an ANCOVA analysis of the change from baseline at week 8 and a model based longitudinal analysis of the daily PEFR measurements. Results from an ANCOVA (analysis of covariance) including treatment group as a factor and the baseline value as a covariate are presented in Table 19. The ANCOVA results reported in Table 19 were limited to change from baseline at week 8 PEFR measurements from office based spirometry assessments. Patients were also instructed to perform peak flow rate assessments at home, once in the morning and once in the evening using a hand-held peak flow device. PEFR measures were then recorded by the patient into a diary. A total of 6878 morning (5 am-12 noon) observations were collected from 149 patients during the treatment phase of the study (56 days in duration) corresponding to approximately 46.2 observations per subject. […] The endpoint used in this analysis was change from baseline in morning PEFR. While the model based analysis can be difficult to understand, this approach takes advantage of the rich daily PEFR data set (6878 observations) whereas the ANCOVA was limited to the week 8 PEFR (146 observations). The model included a placebo and treatment component. […] This common phenomenon is typically referred to as “regression to the mean”. In addition, the onset of this placebo effect appeared to occur over time. Therefore, a rate constant was added to the model to account for the change in placebo effect over time. […] Placeboss=θ(1)+η(1)+θ(9)*baseline % predicted PEFR (Eq. 3) Placebot=Placeboss*(1-exp(-θ(5)*DAY)) (Eq. 4) […] To allow for a less than immediate CEP-1347 effect, a rate constant controlling the onset of treatment effect was also included in the treatment model. In addition, it was assumed that the ability of a patient to responds to drug treatment was proportional to the patients baseline % predicted PEFR. In other words, patients with normal lung function at baseline would be expected to have little effect whereas those with poor lung function at baseline would be expected to have a larger effect. This model component is similar to a treatment by baseline interaction in an ANCOVA analysis. Equation describes the treatment time course model: […]=θ(n)*ROOM*(1-(-exp(-θ(10)*DAY)) (Eq. 5) Where, […] the treatment effect at time t adjusted for the patient's baseline % predicted PEFR and duration of drug therapy, θ(n) is the fixed effect associated with n treatment group; either 10, 25, or 50 mgBID treatment groups, ROOM scales the magnitude of the treatment effect based on the baseline % predicted PEFR (i.e., 1-baseline predicted; baseline by treatment interaction), θ(10) is the rate constant governing the onset of treatment effect. The overall effect at time t combines the placebo component and the drug component (Equation 6): […]=Placebot+Treatment1+ε(1) (Eq. 6) […] Model selection was done in the same manner as described for the MCT analysis. In addition, a randomization test was undertaken to more accurately determine the p value comparing the full model (run #14 included a treatment component) to the reduced model (run #5; placebo model only). […] The 5th and 95th percentiles for the predicted values were identified from the pool of predicted values to establish a 90% prediction interval around the mean model prediction (Table 21).

[5] = tested on: IL-1β; conditions: standard in vitro pharmacological testing procedures (WO 97/49406); cited from earlier work
[6] = tested on: asthma patients; test: Phase II clinical study CEP-1347-201: spirometry FEV/FVC; format: in vivo, human; conditions: patients with near normal lung function at baseline
Text: The overall mean baseline percent predicted FEV1 (forced expiratory […] in 1 second) and FEV1 values for the study were 96% and 2.9 liters, respectively.

[7] = tested on: MMP-9; test: Phase II clinical study CEP-1347-201: MMP-9 change from baseline; format: in vivo, human; conditions: for MMP-9 Change from Baseline at Week 8, LS Mean: ANCOVA
Text: Matrix metalloproteinases (MMPs) are members of a family of proteolytic enzymes that degrade the extracellular matrix and […] tissue inhibitors (TIMPs). Up regulation of MMP-9 results in subepithelial collagen deposition and airway remodeling leading to irreversible airways obstruction in asthma patients. Airway remodeling has and continues to be a research goal of anti-asthma therapies. […] The change in the […] reached statistical significance and the comparison of the pooled CEP-1347 groups versus placebo approached statistical significance (p=0.06).

[8] = tested on: TNFα; conditions: lipopolysaccharide challenge; cited from earlier work

CCSCc1ccc2c(c1)c1c3c(c4c5cc(CSCC)ccc5n5c4c1n2C1CC(O)(C(=O)OC)C5(C)O1)CNC3=O (stereo not shown) [CEP-1347]
production of TNFα by cultured cells [1]: inhibit the production
daily evening PEFR, CEP-1347 effect in longitudinal model [2]: borderline significant
subjects who developed rhinitis ([3]; 50 mg dose group (n=198), 6 subjects in placebo group (n=191), p=0.01): none
AR episodes (rhinitis episodes) ([3]; 50 mg twice daily (bid), N=198, placebo 6 (N=191), p = 0.01): 0
PEFR Change from Baseline at Week 8, LS Mean ([4]; 10 mg BID, p 0.30): 0.01
PEFR Change from Baseline at Week 8, LS Mean ([4]; 25 mg BID, p 1.0): 0.03
PEFR Change from Baseline at Week 8, LS Mean ([4]; 50 mg BID, p 0.77): 0.04
daily morning PEFR change from baseline, longitudinal mixed effects model with CEP-1347 treatment component vs placebo only model ([4]; 10, 25, 50 mg BID, 56 days, p=0.012): statistically significant improvement in the description of the data
Mean model predicted PEFR adjusted for baseline percent predicted PEFR, mean ([4]; Dose 20, BL % pred PEF 70): 19.3
Mean model predicted PEFR adjusted for baseline percent predicted PEFR, mean ([4]; Dose 20, BL % pred PEF 80): 16.6
Mean model predicted PEFR adjusted for baseline percent predicted PEFR, mean ([4]; Dose 20, BL % pred PEF 96): 12.2
Mean model predicted PEFR adjusted for baseline percent predicted PEFR, mean ([4]; Dose 50, BL % pred PEF 70): 38.6
Mean model predicted PEFR adjusted for baseline percent predicted PEFR, mean ([4]; Dose 50, BL % pred PEF 80): 29.4
Mean model predicted PEFR adjusted for baseline percent predicted PEFR, mean ([4]; Dose 50, BL % pred PEF 96): 14.8
Mean model predicted PEFR adjusted for baseline percent predicted PEFR, mean ([4]; Dose 100, BL % pred PEF 70): 99.5
Mean model predicted PEFR adjusted for baseline percent predicted PEFR, mean ([4]; Dose 100, BL % pred PEF 80): 70.0
Mean model predicted PEFR adjusted for baseline percent predicted PEFR, mean ([4]; Dose 100, BL % pred PEF 96): 22.9
production of IL-1β by cultured cells [5]: inhibit the production
FEV/FVC (ANCOVA) [6]: no clear treatment related trends or statistically significant changes
MMP 9 Change from baseline, Mean ([7]; 10 mg BID, 4 Weeks): -89.2 pg/mL
MMP 9 Change from baseline, Median ([7]; 10 mg BID, 4 Weeks): -79.4 pg/mL
MMP 9 Observed Values, Mean ([7]; 10 mg BID, 4 Weeks): 723.4 pg/mL
MMP 9 Observed Values, Median ([7]; 10 mg BID, 4 Weeks): 636.5 pg/mL
MMP 9 Change from baseline, Mean ([7]; 10 mg BID, 8 Weeks): -108.5 pg/mL
MMP 9 Change from baseline, Median ([7]; 10 mg BID, 8 Weeks): -87.6 pg/mL
MMP 9 Observed Values, Mean ([7]; 10 mg BID, 8 Weeks): 687.4 pg/mL
MMP 9 Observed Values, Median ([7]; 10 mg BID, 8 Weeks): 596.2 pg/mL
MMP-9 Change from Baseline at Week 8, LS Mean ([7]; 10 mg BID, p 0.23): −98.4
MMP-9 change from baseline at week 8 (ANCOVA) ([7]; 25 mg BID group relative to placebo, p=0.04): statistically significant reduction
MMP 9 Change from baseline, Mean ([7]; 25 mg BID, 4 Weeks): -104.2 pg/mL
MMP 9 Change from baseline, Median ([7]; 25 mg BID, 4 Weeks): -104.8 pg/mL
MMP 9 Observed Values, Mean ([7]; 25 mg BID, 4 Weeks): 660.4 pg/mL
MMP 9 Observed Values, Median ([7]; 25 mg BID, 4 Weeks): 623.4 pg/mL
MMP 9 Change from baseline, Mean ([7]; 25 mg BID, 8 Weeks): -147.6 pg/mL
MMP 9 Change from baseline, Median ([7]; 25 mg BID, 8 Weeks): -85.0 pg/mL
MMP 9 Observed Values, Mean ([7]; 25 mg BID, 8 Weeks): 633.5 pg/mL
MMP 9 Observed Values, Median ([7]; 25 mg BID, 8 Weeks): 582.1 pg/mL
MMP-9 Change from Baseline at Week 8, LS Mean ([7]; 25 mg BID, p 0.04): −144
MMP 9 Change from baseline, Mean ([7]; 50 mg BID, 4 Weeks): -82.4 pg/mL
MMP 9 Change from baseline, Median ([7]; 50 mg BID, 4 Weeks): -63.6 pg/mL
MMP 9 Observed Values, Mean ([7]; 50 mg BID, 4 Weeks): 704.1 pg/mL
MMP 9 Observed Values, Median ([7]; 50 mg BID, 4 Weeks): 704.2 pg/mL
MMP 9 Change from baseline, Mean ([7]; 50 mg BID, 8 Weeks): -114.0 pg/mL
MMP 9 Change from baseline, Median ([7]; 50 mg BID, 8 Weeks): -60.1 pg/mL
MMP 9 Observed Values, Mean ([7]; 50 mg BID, 8 Weeks): 682.5 pg/mL
MMP 9 Observed Values, Median ([7]; 50 mg BID, 8 Weeks): 655.1 pg/mL
MMP-9 Change from Baseline at Week 8, LS Mean ([7]; 50 mg BID, p 0.19): −104
MMP-9 change from baseline at week 8 (ANCOVA) ([7]; all CEP-1347 treatment groups relative to placebo, pooled groups vs placebo p=0.06): greater reduction
production of TNFα by mice after LPS challenge [8]: reduces production
